Test results published in ChEMBL document CHEMBL1201861, “Genomics of Drug Sensitity in Cancer screening data, Wellcome Trust Sanger Institute”.

Experiments:
Experiment in all cases: cells
COLO-792 = type: functional, cell-based, Homo sapiens; conditions: Homo sapiens, COLO-792
Description: SANGER: Inhibition of human COLO-792 cell growth in a cell viability assay.

CPC-N = type: functional, cell-based, Homo sapiens; conditions: Homo sapiens, CPC-N;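 also: growth inhibition of CPC-N cells, with a cell viability assay as the readout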
Description: SANGER: Inhibition of human CPC-N cell growth in a cell viability assay.

Daoy = type: functional, cell-based, Homo sapiens; conditions: Homo sapiens, Daoy;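 also: daoy cell growth inhibition, read out as cell viability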
Description: SANGER: Inhibition of human Daoy cell growth in a cell viability assay.

Detroit 562 = type: functional, cell-based, Homo sapiens; conditions: Homo sapiens, Detroit 562;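 also: growth inhibition of human Detroit 562 cells, read out by a cell viability assay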
Description: SANGER: Inhibition of human Detroit562 cell growth in a cell viability assay.

EGI-1 = type: functional, cell-based, Homo sapiens; conditions: Homo sapiens, EGI-1;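 also: cell viability readout used to gauge growth inhibition of EGI-1 cells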
Description: SANGER: Inhibition of human EGI-1 cell growth in a cell viability assay.

HT1197 = type: functional, cell-based, Homo sapiens, HT-1197; conditions: Homo sapiens, HT1197
Description: SANGER: Inhibition of human HT-1197 cell growth in a cell viability assay.

HT-1376 = type: functional, cell-based, Homo sapiens; conditions: Homo sapiens, HT-1376
Description: SANGER: Inhibition of human HT-1376 cell growth in a cell viability assay.

HT55 = type: functional, cell-based, Homo sapiens; conditions: Homo sapiens, HT55;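 also: cell viability readout measuring growth inhibition of human HT55 cells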
Description: SANGER: Inhibition of human HT55 cell growth in a cell viability assay.

KOSC-2 = type: functional, cell-based, Homo sapiens; conditions: Homo sapiens, KOSC-2;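 also: growth inhibition of KOSC-2 cells, read out by a cell viability assay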
Description: SANGER: Inhibition of human KOSC-2 cell growth in a cell viability assay.

KYSE-150 cell line = type: functional, cell-based, Homo sapiens; conditions: Homo sapiens, KYSE-150;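 also: growth inhibition of human KYSE-150 cells, read out with a cell viability assay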
Description: SANGER: Inhibition of human KYSE-150 cell growth in a cell viability assay.

KYSE-520 cell line = type: functional, cell-based, Homo sapiens; conditions: Homo sapiens, KYSE-520;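 also: growth inhibition of human KYSE-520 cells, read out with a viability assay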
Description: SANGER: Inhibition of human KYSE-520 cell growth in a cell viability assay.

KYSE-70 cell line = type: functional, cell-based, Homo sapiens; conditions: Homo sapiens, KYSE-70;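 also: cell viability assay read-out, with IC50 expressing suppression of KYSE-70 cell growth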
Description: SANGER: Inhibition of human KYSE-70 cell growth in a cell viability assay.

LC4-1 = type: functional, cell-based, Homo sapiens; conditions: Homo sapiens, LC4-1;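 also: growth inhibition of LC4-1 cells, read out with a cell viability assay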
Description: SANGER: Inhibition of human LC4-1 cell growth in a cell viability assay.

LCLC-103H cell line = type: functional, cell-based, Homo sapiens; conditions: Homo sapiens, LCLC-103H
Description: SANGER: Inhibition of human LCLC-103H cell growth in a cell viability assay.

LU-165 = type: functional, cell-based, Homo sapiens; conditions: Homo sapiens, LU-165
Description: SANGER: Inhibition of human LU-165 cell growth in a cell viability assay.

M14 = type: functional, cell-based, Homo sapiens; conditions: Homo sapiens, M14;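 also: growth inhibition of M14 cells, read out with a cell viability assay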
Description: SANGER: Inhibition of human M14 cell growth in a cell viability assay.

MEL-HO = type: functional, cell-based, Homo sapiens; conditions: Homo sapiens, MEL-HO
Description: SANGER: Inhibition of human MEL-HO cell growth in a cell viability assay.

NALM-6 = type: functional, cell-based, Homo sapiens; conditions: Homo sapiens, NALM-6;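 also: growth inhibition of NALM-6 cells, read out with a cell viability assay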
Description: SANGER: Inhibition of human NALM-6 cell growth in a cell viability assay.

NCI-H1573 = type: functional, cell-based, Homo sapiens; conditions: Homo sapiens, NCI-H1573;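 also: growth inhibition of NCI-H1573 cells, read out with a cell viability assay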
Description: SANGER: Inhibition of human NCI-H1573 cell growth in a cell viability assay.

NCI-H1792 = type: functional, cell-based, Homo sapiens; conditions: Homo sapiens, NCI-H1792;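 also: growth inhibition of human NCI-H1792 cells, read out as cell viability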
Description: SANGER: Inhibition of human NCI-H1792 cell growth in a cell viability assay.

NCI-H2081 = type: functional, cell-based, Homo sapiens; conditions: Homo sapiens, NCI-H2081;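 also: growth inhibition of human NCI-H2081 cells, read out with a cell viability assay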
Description: SANGER: Inhibition of human NCI-H2081 cell growth in a cell viability assay.

NCI-H2227 = type: functional, cell-based, Homo sapiens; conditions: Homo sapiens, NCI-H2227;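 also: growth inhibition of the human cell line, read out with a cell viability assay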
Description: SANGER: Inhibition of human NCI-H2227 cell growth in a cell viability assay.

OAW-42 = type: functional, cell-based, Homo sapiens; conditions: Homo sapiens, OAW-42;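 also: growth inhibition of OAW-42 cells, read out with a cell viability assay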
Description: SANGER: Inhibition of human OAW-42 cell growth in a cell viability assay.

OE33 = type: functional, cell-based, Homo sapiens; conditions: Homo sapiens, OE33;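 also: growth inhibition of human OE33 cells, measured by a cell viability assay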
Description: SANGER: Inhibition of human OE33 cell growth in a cell viability assay.

OVCAR-3 = type: functional, cell-based, Homo sapiens; conditions: Homo sapiens, OVCAR-3;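 also: growth inhibition of human OVCAR-3 cells, determined by a cell viability assay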
Description: SANGER: Inhibition of human OVCAR-3 cell growth in a cell viability assay.

OVCAR-8 = type: functional, cell-based, Homo sapiens; conditions: Homo sapiens, OVCAR-8;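 also: growth inhibition of human OVCAR-8 cells, read out by a cell viability assay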
Description: SANGER: Inhibition of human OVCAR-8 cell growth in a cell viability assay.

PC-14 = type: functional, cell-based, Homo sapiens; conditions: Homo sapiens, PC-14;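 also: cell viability assay measuring inhibition of PC-14 cell growth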
Description: SANGER: Inhibition of human PC-14 cell growth in a cell viability assay.

PFSK-1 = type: functional, cell-based, Homo sapiens; conditions: Homo sapiens, PFSK-1;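 also: cell viability assay measuring how strongly compounds suppress growth of human PFSK-1 cells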
Description: SANGER: Inhibition of human PFSK-1 cell growth in a cell viability assay.

RPMI-7951 = type: functional, cell-based, Homo sapiens; conditions: Homo sapiens, RPMI-7951
Description: SANGER: Inhibition of human RPMI-7951 cell growth in a cell viability assay.

SCC-9 = type: functional, cell-based, Homo sapiens; conditions: Homo sapiens, SCC-9;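 also: Read-out is a cell viability assay, with values giving inhibition of cell growth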
Description: SANGER: Inhibition of human SCC-9 cell growth in a cell viability assay.

SCLC-21H = type: functional, cell-based, Homo sapiens; conditions: Homo sapiens, SCLC-21H;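 also: growth inhibition of cultured human SCLC-21H cells, read out with a cell viability assay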
Description: SANGER: Inhibition of human SCLC-21H cell growth in a cell viability assay.

SK-HEP1 = type: functional, cell-based, Homo sapiens, SK-HEP-1; conditions: Homo sapiens, SK-HEP1;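 also: cell viability readout used to quantify reduction in proliferation of human SK-HEP-1 cells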
Description: SANGER: Inhibition of human SK-HEP-1 cell growth in a cell viability assay.

SK-LU-1 = type: functional, cell-based, Homo sapiens; conditions: Homo sapiens, SK-LU-1;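 also: cell viability assay measuring growth inhibition of human SK-LU-1 cells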
Description: SANGER: Inhibition of human SK-LU-1 cell growth in a cell viability assay.

SK-MEL-30 = type: functional, cell-based, Homo sapiens; conditions: Homo sapiens, SK-MEL-30;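 also: growth inhibition of SK-MEL-30 cells, determined with a cell viability assay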
Description: SANGER: Inhibition of human SK-MEL-30 cell growth in a cell viability assay.

SW1088 = type: functional, cell-based, Homo sapiens; conditions: Homo sapiens, SW1088;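 also: growth inhibition of human SW1088 cells, read out by a cell viability assay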
Description: SANGER: Inhibition of human SW1088 cell growth in a cell viability assay.

SW626 = type: functional, cell-based, Homo sapiens; conditions: Homo sapiens, SW626;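 also: growth inhibition of SW626 cells, measured with a cell viability assay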
Description: SANGER: Inhibition of human SW626 cell growth in a cell viability assay.

TCC-SUP = type: functional, cell-based, Homo sapiens; conditions: Homo sapiens, TCC-SUP;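 also: growth inhibition of TCC-SUP cells, read out with a cell viability assay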
Description: SANGER: Inhibition of human TCCSUP cell growth in a cell viability assay.

AGS = type: functional, cell-based, Homo sapiens; conditions: Homo sapiens, AGS;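 also: growth inhibition of AGS cells, determined with a cell viability assay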
Description: SANGER: Inhibition of human AGS cell growth in a cell viability assay.

ARH-77 = type: functional, cell-based, Homo sapiens; conditions: Homo sapiens, ARH-77;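 also: growth inhibition of ARH-77 cells, read out by a cell viability assay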
Description: SANGER: Inhibition of human ARH-77 cell growth in a cell viability assay.

BPH-1 = type: functional, cell-based, Homo sapiens; conditions: Homo sapiens, BPH-1;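 also: cell viability assay measuring growth inhibition of human BPH-1 cells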
Description: SANGER: Inhibition of human BPH-1 cell growth in a cell viability assay.

BT-20 = type: functional, cell-based, Homo sapiens; conditions: Homo sapiens, BT-20;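 also: cell viability assay measuring suppression of growth in human BT-20 cells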
Description: SANGER: Inhibition of human BT-20 cell growth in a cell viability assay.

CA46 = type: functional, cell-based, Homo sapiens; conditions: Homo sapiens, CA46;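 also: growth inhibition of human CA46 cells, read out by a cell viability assay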
Description: SANGER: Inhibition of human CA46 cell growth in a cell viability assay.

CAKI-1 = type: functional, cell-based, Homo sapiens; conditions: Homo sapiens, CAKI-1;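 also: growth inhibition of CAKI-1 cells, measured by a cell viability assay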
Description: SANGER: Inhibition of human CAKI-1 cell growth in a cell viability assay.

UO-31 = type: functional, cell-based, Homo sapiens; conditions: Homo sapiens, UO-31;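 also: cell viability assay measuring inhibition of cell growth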
Description: SANGER: Inhibition of human U031 cell growth in a cell viability assay.

UACC-893 = type: functional, cell-based, Homo sapiens; conditions: Homo sapiens, UACC-893
Description: SANGER: Inhibition of human UACC-893 cell growth in a cell viability assay.

WSU-NHL = type: functional, cell-based, Homo sapiens; conditions: Homo sapiens, WSU-NHL;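 also: growth inhibition of human WSU-NHL cells, read out with a cell viability assay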
Description: SANGER: Inhibition of human WSU-NHL cell growth in a cell viability assay.

CAPAN-1 = type: functional, cell-based, Homo sapiens; conditions: Homo sapiens, CAPAN-1;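 also: growth suppression of CAPAN-1 cells, read out by a cell viability assay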
Description: SANGER: Inhibition of human CAPAN-1 cell growth in a cell viability assay.

In the case of CCC/C=C/C=C/C(=O)O[C@H]1/C(=C/C(=O)OC)C[C@H]2C[C@H]([C@@H](C)O)OC(=O)C[C@H](O)C[C@@H]3C[C@H](OC(C)=O)C(C)(C)[C@](O)(C[C@@H]4C/C(=C/C(=O)OC)C[C@H](/C=C/C(C)(C)[C@]1(O)O2)O4)O3 [BRYOSTATIN 1], the IC50 (COLO-792) is reported as greater than 8 nM, the IC50 (CPC-N) is reported as greater than 8 nM and the IC50 (Daoy) is reported as greater than 8 nM. The IC50 (Detroit 562) was greater than 8 nM, the IC50 (EGI-1) was greater than 8 nM and the IC50 (HT1197) was greater than 8 nM. The IC50 (HT-1376) was greater than 8 nM, the IC50 (HT55) was greater than 8 nM and the IC50 (KOSC-2) was greater than 8 nM. For the same molecule, the IC50 (KYSE-150 cell line) was greater than 8 nM, the IC50 (KYSE-520 cell line) was greater than 8 nM and the IC50 (KYSE-70 cell line) was greater than 8 nM. For the same molecule, the IC50 (LC4-1) was greater than 8 nM, the IC50 (LCLC-103H cell line) was greater than 8 nM and the IC50 (LU-165) was greater than 8 nM. It also gave an IC50 (M14) greater than 8 nM, an IC50 (MEL-HO) greater than 8 nM and an IC50 (NALM-6) greater than 8 nM. The IC50 (NCI-H1573) was 2.36 nM, the IC50 (NCI-H1792) was greater than 8 nM and the IC50 (NCI-H2081) was greater than 8 nM. The IC50 (NCI-H2227) was greater than 8 nM, the IC50 (OAW-42) was greater than 8 nM and the IC50 (OE33) was greater than 8 nM. The IC50 (OVCAR-3) was greater than 8 nM, the IC50 (OVCAR-8) was greater than 8 nM and the IC50 (PC-14) was greater than 8 nM. For the same molecule, the IC50 (PFSK-1) was greater than 8 nM, the IC50 (RPMI-7951) was greater than 8 nM and the IC50 (SCC-9) was greater than 8 nM. It also gave an IC50 (SCLC-21H) greater than 8 nM, an IC50 (SK-HEP1) greater than 8 nM and an IC50 (SK-LU-1) greater than 8 nM. It also gave an IC50 (SK-MEL-30) greater than 8 nM, an IC50 (SW1088) greater than 8 nM and an IC50 (SW626) greater than 8 nM. The IC50 (TCC-SUP) was greater than 8 nM, the IC50 (AGS) was greater than 8 nM and the IC50 (ARH-77) was greater than 8 nM. It also gave an IC50 (BPH-1) of 6.03 nM, an IC50 (BT-20) greater than 8 nM and an IC50 (CA46) greater than 8 nM. It also gave an IC50 (CAKI-1) greater than 8 nM, an IC50 (UO-31) greater than 8 nM and an IC50 (UACC-893) greater than 8 nM. For the same molecule, the IC50 (WSU-NHL) was greater than 8 nM and the IC50 (CAPAN-1) was greater than 8 nM.
For COc1cccc2c1C(=O)c1c(O)c3c(c(O)c1C2=O)C[C@@](O)(C(=O)CO)C[C@@H]3O[C@H]1C[C@H](N)[C@H](O)[C@H](C)O1 [DOXORUBICIN], the IC50 (COLO-792) was greater than 1020 nM, the IC50 (CPC-N) was 68.4 nM and the IC50 (Daoy) was 8.07 nM. It also gave an IC50 (Detroit 562) of 231 nM, an IC50 (EGI-1) of 598 nM and an IC50 (HT1197) of 213 nM. The IC50 (HT-1376) was 189 nM, the IC50 (HT55) was greater than 1020 nM and the IC50 (KOSC-2) was 249 nM. It also gave an IC50 (KYSE-150 cell line) of 27.8 nM, an IC50 (KYSE-520 cell line) of 261 nM and an IC50 (KYSE-70 cell line) of 225 nM. It also gave an IC50 (LC4-1) of 241 nM, an IC50 (LCLC-103H cell line) of 20.5 nM and an IC50 (LU-165) of 639 nM. For the same molecule, the IC50 (M14) was 905 nM, the IC50 (MEL-HO) was 18.3 nM and the IC50 (NALM-6) was 18.6 nM. The IC50 (NCI-H1573) was greater than 1020 nM, the IC50 (NCI-H1792) was 572 nM and the IC50 (NCI-H2081) was 234 nM. For the same molecule, the IC50 (NCI-H2227) was greater than 1020 nM, the IC50 (OAW-42) was 154 nM and the IC50 (OE33) was 426 nM. For the same molecule, the IC50 (OVCAR-3) was 470 nM, the IC50 (OVCAR-8) was 61.9 nM and the IC50 (PC-14) was 236 nM. The IC50 (PFSK-1) was 678 nM, the IC50 (RPMI-7951) was 130 nM and the IC50 (SCC-9) was greater than 1020 nM. It also gave an IC50 (SCLC-21H) greater than 1020 nM, an IC50 (SK-HEP1) of 25.9 nM and an IC50 (SK-LU-1) of 12.5 nM. For the same molecule, the IC50 (SK-MEL-30) was 35.6 nM, the IC50 (SW1088) was greater than 1020 nM and the IC50 (SW626) was 112 nM. It also gave an IC50 (TCC-SUP) greater than 1020 nM, an IC50 (AGS) of 13.3 nM and an IC50 (ARH-77) of 110 nM. It also gave an IC50 (BPH-1) of 22.1 nM, an IC50 (BT-20) greater than 1020 nM and an IC50 (CA46) of 137 nM. For the same molecule, the IC50 (CAKI-1) was 375 nM, the IC50 (UO-31) was 354 nM and the IC50 (UACC-893) was 522 nM. The IC50 (WSU-NHL) was 155 nM and the IC50 (CAPAN-1) was 51.8 nM.
Molecule Nc1ccn([C@@H]2O[C@H](CO)[C@@H](O)C2(F)F)c(=O)n1 [GEMCITABINE] has an IC50 (COLO-792) greater than 1020 nM, an IC50 (CPC-N) of 329 nM and an IC50 (Daoy) of less than 4 nM. The IC50 (Detroit 562) was 10.4 nM, the IC50 (EGI-1) was 214 nM and the IC50 (HT1197) was greater than 1020 nM. It also gave an IC50 (HT-1376) of 369 nM, an IC50 (HT55) greater than 1020 nM and an IC50 (KOSC-2) greater than 1020 nM. For the same molecule, the IC50 (KYSE-150 cell line) was 8.47 nM, the IC50 (KYSE-520 cell line) was 92.8 nM and the IC50 (KYSE-70 cell line) was 300 nM. It also gave an IC50 (LC4-1) of 74.7 nM, an IC50 (LCLC-103H cell line) of 33.3 nM and an IC50 (LU-165) greater than 1020 nM. It also gave an IC50 (M14) of 515 nM, an IC50 (MEL-HO) of 5.16 nM and an IC50 (NALM-6) of less than 4 nM. It also gave an IC50 (NCI-H1573) greater than 1020 nM, an IC50 (NCI-H1792) of 259 nM and an IC50 (NCI-H2081) of 311 nM. The IC50 (NCI-H2227) was greater than 1020 nM, the IC50 (OAW-42) was 92.1 nM and the IC50 (OE33) was 61.2 nM. The IC50 (OVCAR-3) was greater than 1020 nM, the IC50 (OVCAR-8) was 7.9 nM and the IC50 (PC-14) was 203 nM. The IC50 (PFSK-1) was greater than 1020 nM, the IC50 (RPMI-7951) was less than 4 nM and the IC50 (SCC-9) was greater than 1020 nM. For the same molecule, the IC50 (SCLC-21H) was greater than 1020 nM, the IC50 (SK-HEP1) was 6.14 nM and the IC50 (SK-LU-1) was less than 4 nM. It also gave an IC50 (SK-MEL-30) of less than 4 nM, an IC50 (SW1088) greater than 1020 nM and an IC50 (SW626) of 4.46 nM. The IC50 (TCC-SUP) was greater than 1020 nM, the IC50 (AGS) was less than 4 nM and the IC50 (ARH-77) was less than 4 nM. It also gave an IC50 (BPH-1) of 20.3 nM, an IC50 (BT-20) of 182 nM and an IC50 (CA46) of 293 nM. The IC50 (CAKI-1) was greater than 1020 nM, the IC50 (UO-31) was less than 4 nM and the IC50 (UACC-893) was greater than 1020 nM. It also gave an IC50 (WSU-NHL) of 50.3 nM and an IC50 (CAPAN-1) of 9.23 nM.
